Results from patent EP0311616B1, “COMBINATIONS OF GAMMA INTERFERONS AND ANTI-INFLAMMATORY OR ANTI-PYRETIC AGENTS FOR TREATING DISEASES” (BIOGEN, INC., priority 1986, dated 1987).
Read-outs that look alike come from different tables or passages of the source.

Columns and labels:
[1] = day 6
Text: (§1) In each example, following the standardized protocol for the Subrenal Capsule™ Assay [A.E. Bogden, P.M. Haskell, D.J. LePage, D.E. Kelton, W.R. Cobb, H.J. Esber, "Growth Of Human Tumor Xenografts Implanted Under The Renal Capsule Of Normal Immunocompetent Mice", Exp. Cell Biology, 47, pp. 281-93 (1979)], we implanted BL/MEX6 human melanoma established in serial transplantation (Bogden Laboratories) under the renal capsule of normal, immunocompetent mice (BALB/c × DBA/2) F₁ (CDF₁) (Examples 1 and 2) and into (B6C3F₁) mice (Example 3). Each mouse weighed approximately 25 grams. We then divided the mice into treatment groups as follows: group 1: 10 mice, groups 2-7: 8 mice each.
(§2) In each example, for each mouse, we recorded initial body weight, implanted a tumor and recorded an initial in situ tumor measurement (two diameters) in ocular micrometer units (omu). We administered treatment on days 1-5. Survivors were recorded and any mice dying prior to sacrifice were necropsied. On day 6, the mice were sacrificed, final body weights were recorded, implanted kidneys were removed and final in situ tumor measurements were made to determine tumor growth inhibition or regression. We calculated the ratio of average final body weight to initial body weight (FBW/IBW) to monitor systemic toxicity. Change in (Δ) tumor size between day of sacrifice (day 6) and day of tumor implant (day 0) was calculated individually and for each group.

BL/MEX6 human melanoma = test: six day Subrenal Capsule Assay, tumor xenograft implanted under the renal capsule of normal immunocompetent mice; format: in vivo; conditions: for Avg. Δ Tumor Size (mean ± S.D.): change Day 6-Day 0; for Tumor Response: summary of Examples 1-3, IFN-γ i.m., cortisone and prednisone s.c., all other agents p.o., b.i.d., QD1-5, significance of inhibition vs control
Text: as §1
Over a five-day period, we treated each of groups 4-7 of mice with one of the following anti-inflammatory agents or anti-pyretic agents, either singly or in combination with IFN-γ (IFN-γ dosage: 2,000 µg/Kg/inj., b.i.d., i.m.):
The anti-inflammatory agents or anti-pyretic agents were administered prior to IFN-γ in all combination treatment groups. In each example, we treated groups 1-3 of mice as follows: Group 1: 0.25 ml/inj., b.i.d., i.m. PBS (vehicle treated control) Group 2: 400 mg/Kg/inj., s.c. DTIC [dacarbazine] (positive chemotherapy control) Group 3: 2,000 µg/Kg/inj., b.i.d., i.m. IFN-γ
as §2

[2] = Example 2, CDF1 mice, treatment QD1-5 at doses of Table III
[3] = Example 2, (BALB/c × DBA/2) F1 (CDF1) mice, treatment QD1-5 at doses of Table III
[4] = Example 2, CDF1 mice, treatment QD1-5 at doses of Table III, day 6
[5] = Example 3, B6C3F1 mice, treatment QD1-5 at doses of Table V
[6] = Example 3, (B6C3F1) mice, treatment QD1-5 at doses of Table V
[7] = Example 3, B6C3F1 mice, treatment QD1-5 at doses of Table V, day 6
[8] = Example 1, CDF1 mice, treatment QD1-5 at doses of Table I
[9] = Example 1, (BALB/c × DBA/2) F1 (CDF1) mice, treatment QD1-5 at doses of Table I
[10] = Example 1, CDF1 mice, treatment QD1-5 at doses of Table I, day 6

Structure (SMILES)	FBW/IBW (Final Body Weight/Initial Body Weight) [1, 2]	Avg. Δ Tumor Size (mean ± S.D.) (BL/MEX6 human melanoma; [3]) [omu]	Percent Test/Control (BL/MEX6 human melanoma; [4]) [%]	Test-Control (Δ tumor size (test) minus Δ tumor size (control), degree of tumor inhibition) (BL/MEX6 human melanoma; [4]) [omu]	Tumor Response (BL/MEX6 human melanoma)	FBW/IBW (Final Body Weight/Initial Body Weight) [1, 5]	Avg. Δ Tumor Size (mean ± S.D.) (BL/MEX6 human melanoma; [6]) [omu]	Percent Test/Control (BL/MEX6 human melanoma; [7]) [%]	Test-Control (Δ tumor size (test) minus Δ tumor size (control), degree of tumor inhibition) (BL/MEX6 human melanoma; [7]) [omu]	FBW/IBW (Final Body Weight/Initial Body Weight) [1, 8]	Avg. Δ Tumor Size (mean ± S.D.) (BL/MEX6 human melanoma; [9]) [omu]	Percent Test/Control (BL/MEX6 human melanoma; [10]) [%]	Test-Control (Δ tumor size (test) minus Δ tumor size (control), degree of tumor inhibition) (BL/MEX6 human melanoma; [10]) [omu]	R = regression from original size using the formula FTS (final tumor size)-ITS (initial tumor size)/ITS x 100 (BL/MEX6 human melanoma; Example 2, CDF1 mice, printed as R plus number in the Percent Test/Control column, day 6)	R = regression from original size using the formula (FTS-ITS)/ITS x 100 (BL/MEX6 human melanoma; Example 3, B6C3F1 mice, printed as R plus number in the Percent Test/Control column, day 6)
CC(=O)Oc1ccccc1C(=O)O [ASA, acetyl salicylic acid]	0.93	3.2±1.95	80	-0.80	-										
CC(=O)Nc1ccc(O)cc1 [Acetaminophen]		1.9±1.46	48	-2.10	++ (Significant inhibition p<0.01)										
C[C@]12CCC(=O)C=C1CC[C@@H]1[C@@H]2C(=O)C[C@@]2(C)[C@H]1CC[C@]2(O)C(=O)CO [Cortisone]					+ (Significant inhibition p<0.05)	0.96	1.3±1.73	37	-2.20						
CN(C)/N=N/c1[nH]cnc1C(N)=O [DTIC, dacarbazine]	0.81	-0.2±0.70		-4.20		0.81	-0.2±1.00		-3.70	0.86	0.5±0.7	14	-3.20	R2%	R2%
COc1ccc2c(c1)c(CC(=O)O)c(C)n2C(=O)c1ccc(Cl)cc1 [Indomethacin]					-					0.98	3.1±1.69	84	-0.60		
COc1ccc2cc([C@H](C)C(=O)O)ccc2c1 [Naproxen]					-					0.99	2.8±1.28	76	-0.90		
C[C@]12C=CC(=O)C=C1CC[C@@H]1[C@@H]2C(=O)C[C@@]2(C)[C@H]1CC[C@]2(O)C(=O)CO [Prednisone]					++ (Significant inhibition p<0.01)		0.6±1.57	17	-2.90						
